Source: ChEMBL document CHEMBL4354830, “Discovery of Benzo[cd]indol-2(1H)-ones and Pyrrolo[4,3,2-de]quinolin-2(1H)-ones as Bromodomain and Extra-Terminal Domain (BET) Inhibitors with Selectivity for the First Bromodomain with Potential High Efficiency against Acute Gouty Arthritis” (J Med Chem, 2019)

Target: T1, Bromodomain-containing protein 4 (Homo sapiens, UniProt O60885)
Test: Displacement of tetra-acetylated histone H4 peptide (1-21) from recombinant human N-terminal His-tagged BRD4 BD2 (349 to 460 residues) expressed in Escherichia coli incubated for 30 mins followed by further incubation with tetra-acetylated histone H4 peptide (1-21) for 30 mins by Alphascreen assay

Compound	IC50 [nM]
COc1cc(Cl)ccc1S(=O)(=O)Nc1ccc2c3c(cccc13)C(=O)N2C	3470
Cc1ccc(S(=O)(=O)Nc2ccc3c4c(ccnc24)C(=O)N3C)cc1	6620
CN1C(=O)c2cccc3c(NS(=O)(=O)c4cccc5cccnc45)ccc1c23	260
COc1ccccc1S(=O)(=O)Nc1ccc2c3c(cc(NC(C)(C)C)nc13)C(=O)N2C	2080
COc1ccccc1S(=O)(=O)Nc1ccc2c3c(cc(-c4cnn(C)c4)nc13)C(=O)N2C	289
COc1ccccc1S(=O)(=O)Nc1ccc2c3c(cc(N4CCN(C(=O)OC(C)(C)C)CC4)nc13)C(=O)N2C	2170

Results, then the molecule that gave them:

IC50 [nM]	Compound
7070	COc1ccccc1S(=O)(=O)Nc1ccc2c3c(cc(NCCN4CCCCC4)nc13)C(=O)N2C
15500	O=C1Nc2ccc(NS(=O)(=O)c3ccc(Cl)cc3)c3cccc1c23
107	COc1ccccc1S(=O)(=O)Nc1ccc2c3c(cc(-c4cnn(C5CC5)c4)nc13)C(=O)N2C
4110	COc1ccccc1S(=O)(=O)Nc1ccc2c3c(cc(-n4ccnc4)nc13)C(=O)N2C
320	CCCn1cc(-c2cc3c4c(ccc(NS(=O)(=O)c5ccc(Cl)cc5OC)c4c2)N(C)C3=O)cn1
2720	CCN1C(=O)c2cccc3c(NS(=O)(=O)c4ccc(Cl)cc4)ccc1c23

Target: T1, Bromodomain-containing protein 4
Test: Displacement of tetra-acetylated histone H4 peptide (1-21) from recombinant human N-terminal His-tagged BRD4 BD1 (44 to 170 residues) expressed in Escherichia coli incubated for 30 mins followed by further incubation with tetra-acetylated histone H4 peptide (1-21) for 30 mins by Alphascreen assay

Compound	IC50 [nM]
Cc1ccccc1S(=O)(=O)Nc1ccc2c3c(cccc13)C(=O)N2C	709
CN1CCN(c2cc3c4c(ccc(NS(=O)(=O)c5ccc(Cl)cc5)c4n2)N(C)C3=O)CC1	391
COc1ccccc1S(=O)(=O)Nc1ccc2c3c(cc(NCC4CCOCC4)nc13)C(=O)N2C	503
COc1ccccc1S(=O)(=O)Nc1ccc2c3c(cc(-c4cnn(Cc5ccccc5)c4)cc13)C(=O)N2C	205
COc1ccccc1S(=O)(=O)Nc1ccc2c3c(cc(-c4ccoc4)cc13)C(=O)N2C	164
CN1C(=O)c2cc(Cl)nc3c(NS(=O)(=O)c4ccc(Cl)cc4)ccc1c23	2600
Cc1cc(F)ccc1S(=O)(=O)Nc1ccc2c3c(cccc13)C(=O)N2C	810
CN1C(=O)c2cccc3c(NS(=O)(=O)c4cccc(Cl)c4F)ccc1c23	1700
COc1cc(Cl)ccc1S(=O)(=O)Nc1ccc2c3c(cccc13)C(=O)N2C	299
Cc1ccc(S(=O)(=O)Nc2ccc3c4c(ccnc24)C(=O)N3C)cc1	1570
CN1C(=O)c2cccc3c(NS(=O)(=O)c4cccc5cccnc45)ccc1c23	329
Cc1ccccc1NS(=O)(=O)c1ccc2c3c(cccc13)C(=O)N2C	15500
COc1ccccc1S(=O)(=O)Nc1ccc2c3c(cc(NC(C)(C)C)nc13)C(=O)N2C	573
CN1C(=O)c2cccc3c(NS(=O)(=O)c4ccccc4OC(F)(F)F)ccc1c23	3890
COc1ccccc1S(=O)(=O)Nc1ccc2c3c(cc(-c4cnn(C)c4)nc13)C(=O)N2C	12.6
COc1ccccc1S(=O)(=O)Nc1ccc2c3c(cc(N4CCN(C(=O)OC(C)(C)C)CC4)nc13)C(=O)N2C	334
CN1C(=O)c2cc(-c3cnn(C)c3)cc3c(NS(=O)(=O)c4ccc(Cl)cc4)ccc1c23	348
CN1C(=O)c2cc(-c3cnn(C4CC4)c3)cc3c(NS(=O)(=O)c4ccc(Cl)cc4)ccc1c23	666

Next, values leading:

IC50 [nM]	Compound
656	COc1ccccc1S(=O)(=O)Nc1ccc2c3c(cc(Cl)nc13)C(=O)N2C
2230	COc1ccccc1S(=O)(=O)Nc1ccc2c3c(cc(N[C@H](C)c4ccccn4)nc13)C(=O)N2C
328	COc1ccccc1S(=O)(=O)Nc1ccc2c3c(cc(NCCN4CCCCC4)nc13)C(=O)N2C
769	O=C1Nc2ccc(NS(=O)(=O)c3ccc(Cl)cc3)c3cccc1c23
9070	CN1C(=O)c2cccc3c(NS(=O)(=O)c4c(F)cccc4F)ccc1c23
709	CCOC(=O)CC1CCN(c2cc3c4c(ccc(NS(=O)(=O)c5ccccc5OC)c4n2)N(C)C3=O)CC1
217	CN1C(=O)c2cc(N3CCOCC3)nc3c(NS(=O)(=O)c4ccc(Cl)cc4)ccc1c23
16.6	COc1ccccc1S(=O)(=O)Nc1ccc2c3c(cc(-c4cnn(C5CC5)c4)nc13)C(=O)N2C
889	COc1ccccc1S(=O)(=O)Nc1ccc2c3c(cc(-n4ccnc4)nc13)C(=O)N2C
107	CCCn1cc(-c2cc3c4c(ccc(NS(=O)(=O)c5ccc(Cl)cc5OC)c4c2)N(C)C3=O)cn1
3720	CN1C(=O)c2cccc3c(NS(=O)(=O)c4cccs4)ccc1c23
237	CCN1C(=O)c2cccc3c(NS(=O)(=O)c4ccc(Cl)cc4)ccc1c23

Target: T1, Bromodomain-containing protein 4
Test: Binding affinity to recombinant human N-terminal His-tagged BRD4 BD1 (44 to 170 residues) expressed in Escherichia coli assessed as change in melting temperature at 10 uM by SYPRO Orange based differential scanning fluorimetry

Compound	ΔTm [°C]
Cc1ccccc1S(=O)(=O)Nc1ccc2c3c(cccc13)C(=O)N2C	5.1
Cc1cc(F)ccc1S(=O)(=O)Nc1ccc2c3c(cccc13)C(=O)N2C	4.32
CN1C(=O)c2cccc3c(NS(=O)(=O)c4cccc(Cl)c4F)ccc1c23	4.83
COc1cc(Cl)ccc1S(=O)(=O)Nc1ccc2c3c(cccc13)C(=O)N2C	7.1
Cc1ccc(S(=O)(=O)Nc2ccc3c4c(ccnc24)C(=O)N3C)cc1	5.12
CN1C(=O)c2cccc3c(NS(=O)(=O)c4cccc5cccnc45)ccc1c23	4.13
Cc1ccccc1NS(=O)(=O)c1ccc2c3c(cccc13)C(=O)N2C	2.23
CN1C(=O)c2cccc3c(NS(=O)(=O)c4ccccc4OC(F)(F)F)ccc1c23	4.73

The remaining lines, values ahead:

ΔTm [°C]	Compound
3.73	O=C1Nc2ccc(NS(=O)(=O)c3ccc(Cl)cc3)c3cccc1c23
3.73	CN1C(=O)c2cccc3c(NS(=O)(=O)c4c(F)cccc4F)ccc1c23
4.02	CN1C(=O)c2cccc3c(NS(=O)(=O)c4cccs4)ccc1c23
6.36	CCN1C(=O)c2cccc3c(NS(=O)(=O)c4ccc(Cl)cc4)ccc1c23
